Reference: patent US4162324A, “Antibiotics 890A1 and 890A3” (Merck & Co., Inc., priority 1977, dated 1979)

Columns and labels:
[1] = system: Alcaligenes faecalis ATCC 213; assay: In vitro antibacterial spectrum profile, zone of inhibition; type: cell-based; details: ATCC213, 33 μg/ml, read-out: Inhib. Zone Diam.
Protocol: (§1) The test to determine the antibiotic spectrum profile is carried out by application of a 0.015 ml. droplet on the surface of a 100×15 mm. petri plate containing 5 ml. of seeded nutrient agar and 0.2% yeast extract. The antibiotic 890A1 is tested at a level of 33 μg/ml. and the antibiotic 890A3 is tested at a level of 182 μg/ml.

Bacillus sp. MB-633 = assay: as above; type: cell-based; details: SP.MB633, 33 μg/ml, read-out: Inhib. Zone Diam.
Protocol: as §1

[2] = system: Corynebacterium pseudoidph. ATCC 9742; assay: as above; type: cell-based; details: ATCC9742, 33 μg/ml, read-out: Inhib. Zone Diam.
Protocol: as §1

[3] = system: Proteus vulgaris ATCC 21100; assay: as above; type: cell-based; details: ATCC21100, 33 μg/ml, read-out: Inhib. Zone Diam.
Protocol: as §1

Proteus vulgaris MB-1012 = assay: as above; type: cell-based; details: MB1012, 33 μg/ml, read-out: Inhib. Zone Diam.
[4] = system: Pseudomonas aeruginosa MB-979; assay: as above; type: cell-based; details: MB979, 33 μg/ml, read-out: Inhib. Zone Diam.
[5] = system: Serratia marcescens ATCC 990; assay: as above; type: cell-based; details: ATCC990, 33 μg/ml, read-out: Inhib. Zone Diam.
[6] = system: Staphlococcus aureus ATCC 6538 P; assay: as above; type: cell-based; details: 33 μg/ml; read-out: Inhib. Zone Diam.
[7] = system: Bacillus subtilis ATCC 6633; assay: as above; type: cell-based; details: ATCC6633, 33 μg/ml, read-out: Inhib. Zone Diam.
Sarcina lutea ATCC 9341 = assay: as above; type: cell-based; details: Micrococcus luteus, ATCC9341; 33 μg/ml; read-out: Inhib. Zone Diam.
[8] = system: Staphylococcus aureus MB-698; assay: as above; type: cell-based; details: MB698, 33 μg/ml, read-out: Inhib. Zone Diam.
[9] = system: Streptococcus faecalis MB-753; assay: as above; type: cell-based; details: Enterococcus faecalis, MB753; 33 μg/ml; read-out: Inhib. Zone Diam.
[10] = system: Brucella bronchiseptica ATCC 4617; assay: microbe, parasite or virus in culture; type: cell-based; details: Bordetella bronchiseptica, ATCC4617, read-out: Inhib. Zone Diam.
[11] = system: Salmonella gallinarum MB-1287; assay: In vitro antibacterial spectrum profile, zone of inhibition; type: cell-based; details: Salmonella enterica, 33 μg/ml, read-out: Inhib. Zone Diam.
[12] = system: Vibrio percolans ATCC 8461; assay: as above; type: cell-based; details: Comamonas terrigena, ATCC8461, read-out: Inhib. Zone Diam.
[13] = system: Xanthomonas vesicatoria MB-815; assay: as above; type: cell-based; details: MB815, 33 μg/ml, read-out: Inhib. Zone Diam.
Escherichia coli MB-1418 = assay: as above; type: cell-based; details: MB1418, read-out: Inhib. Zone Diam.
[14] = system: Pseudomonas stutzeri ATCC 11607; assay: as above; type: cell-based; details: Stutzerimonas stutzeri, ATCC11607; 33 μg/ml; read-out: Inhib. Zone Diam.
[15] = system: Klebsiella pneumoniae MB-1264; assay: as above; type: cell-based; details: MB1264, read-out: Inhib. Zone Diam.
[16] = system: Aerobacter aerogenes MB-835; assay: as above; type: cell-based; details: Klebsiella aerogenes, MB835; 33 μg/ml; read-out: Inhib. Zone Diam.
[17] = system: Erwinia atroseptica ATCC 4466; assay: as above; type: cell-based; details: Pectobacterium atrosepticum, ATCC4466; 33 μg/ml; read-out: Inhib. Zone Diam.
[18] = system: Pseudomonas aeruginosa MB-2824; assay: as above; type: cell-based; details: MB2824, 33 μg/ml, read-out: Inhib. Zone Diam.
[19] = system: Escherichia coli ATCC 9637; assay: In vitro antibacterial spectrum profile, zone of inhibition, synthetic medium; type: cell-based; details: ATCC9637, read-out: Inhib. Zone Diam.
[20] = system: Streptococcus faecium MB-2820; assay: In vitro antibacterial spectrum profile, zone of inhibition; type: cell-based; details: Enterococcus faecium, MB2820; 33 μg/ml; read-out: Inhib. Zone Diam.
[21] = system: Streptococcus agalactiae MB-2875; assay: as above; type: cell-based; details: MB2875, read-out: Inhib. Zone Diam.
[22] = system: Vibrio percolans resistant to ceph. C MB-2566; assay: as above; type: cell-based; details: Comamonas terrigena, read-out: Inhib. Zone Diam.
[23] = system: Proteus vulgaris (episome) MB-2112; assay: as above; type: cell-based; details: 33 μg/ml, read-out: Inhib. Zone Diam.
[24] = system: Proteus mirabilis MB-3126; assay: as above; type: cell-based; details: MB3126, 33 μg/ml, read-out: Inhib. Zone Diam.
[25] = system: Vibrio percolans ATCC 8461 + 2 × 10^5 units/ml penicillinase; assay: In vitro antibacterial spectrum profile, zone of inhibition, with penicillinase; type: cell-based; details: Comamonas terrigena, ATCC8461, 33 μg/ml, read-out: Inhib. Zone Diam.
[26] = system: Salmonella schottmuellari MB-2837; assay: In vivo protection of intraperitoneally infected mice; parameters: species or system Female white Swiss mice; details: ip; at infection and 6 hours later; calculated on the projected purity of 890A1 at 5500 units/mg
Protocol: (§2) In determining the in vivo activity, antibiotic 890A1 is dissolved in and diluted with 0.15M NaCl, 0.01M sodium phosphate, pH 7.0, to provide five fourfold concentrations of drug for testing. Female white Swiss mice, averaging about 21 g. in weight, were infected intraperitoneally with the test organism suspended in broth. The numbers of organisms injected were determined by standard plate-count techniques. At the time of infection and again 6 hours later, certain of the mice were treated intraperitoneally with the antibiotic. Five mice were used for each concentration of drug tested. An additional two mice, not infected, were treated with the antibiotic to determine whether the amount of agent injected was toxic. Controls of five mice for each of several dilutions of the infecting culture were included in each test in order to calculate the numbers of organisms that were lethal to 50% of the infected, untreated mice (LD50). This calculation was made using survival data of the seventh day after infection, at which time the amount of drug that should protect 50% of the infected mice (ED50) also was calculated.
All animals receiving this challenge and not treated with antibiotic died within 48 hours of the infection.

Electrophoresis = type: physicochemical; details: neutral pH
Solubility in water = type: physicochemical; details: sodium salt
[27] = system: gram-negative and gram-positive organisms; assay: In vivo activity; parameters: species or system Female white Swiss mice; details: mouse
Protocol: as §2

[28] = system: Vibrio percolans ATCC 8461; assay: Bioassay, agar plate disc-diffusion method
[29] = system: Vibrio percolans (ATCC 8461); assay: Assay procedure for determining "890 Assay Units" (disc-plate assay, cephaloridine standard); type: cell-based
Protocol: The conventional disc-plate assay procedure is employed and the discs are 1/2 inch in diameter. The routinely poured 10 ml./plate inoculated with Vibrio percolans (ATCC 8461) is used and the standard is cephaloridine. Four concentrations of cephaloridine constitute the standard -- 3.12, 6.25. 12.5 and 25 mcg per ml. with the 12.5 mcg per ml. as a reference solution. The zone diameters on a 5 ml. plate for the standard are as follows:
A unit is defined as the amount of antibiotic-producing a 25 mm. zone of inhibition on a 5 ml. plate. Therefore, in this assay a concentration of 12.5 mcg per ml. of cephaloridine is considered equivalent to 1 unit of 890A. Since the slope of the line for cephaloridine is 4.0 calculations of the potency of a sample are made using a slope of 4.0.

[30] = 1 unit/ml. = the concentration which produces a 25 mm zone of inhibition

SMILES: CC(=O)NCCSC1=C(C(=O)O)N2C(=O)C(C(C)O)C2C1 (centres unmarked) [Antibiotic 890A1]
- zone of inhibition at 33 µg/mL [1]: 27 mm
- zone of inhibition at 33 µg/mL (Bacillus sp. MB-633): 40 mm
- zone of inhibition at 33 µg/mL [2]: 34 mm
- zone of inhibition at 33 µg/mL [3]: 34 mm
- zone of inhibition at 33 µg/mL (Proteus vulgaris MB-1012): 21 mm
- zone of inhibition at 33 µg/mL [4]: 0 mm
- zone of inhibition at 33 µg/mL [5]: 26 mm
- zone of inhibition at 33 µg/mL [6]: 35 mm
- zone of inhibition at 33 µg/mL [7]: 38 mm
- zone of inhibition at 33 µg/mL (Sarcina lutea ATCC 9341): 38 mm
- zone of inhibition at 33 µg/mL [8]: 28 mm
- zone of inhibition at 33 µg/mL [9]: 17 mm
- zone of inhibition at 33 µg/mL [10]: 22 mm
- zone of inhibition at 33 µg/mL [11]: 33 mm
- zone of inhibition at 33 µg/mL [12]: 34 mm
- zone of inhibition at 33 µg/mL [13]: 26 mm
- zone of inhibition at 33 µg/mL (Escherichia coli MB-1418): 27 mm
- zone of inhibition at 33 µg/mL [14]: 10 mm
- zone of inhibition at 33 µg/mL [15]: 27 mm
- zone of inhibition at 33 µg/mL [16]: 26 mm
- zone of inhibition at 33 µg/mL [17]: 20 mm
- zone of inhibition at 33 µg/mL [18]: 0 mm
- zone of inhibition at 33 µg/mL [19]: 27 mm
- zone of inhibition at 33 µg/mL [20]: 18 mm
- zone of inhibition at 33 µg/mL [21]: 36 mm
- zone of inhibition at 33 µg/mL [22]: 15 mm
- zone of inhibition at 33 µg/mL [23]: 32 mm
- zone of inhibition at 33 µg/mL [24]: 23 mm
- zone of inhibition at 33 µg/mL [25]: 10 mm
- ED50 × 2 doses [26]: 3 µg
- movement on electrophoresis (Electrophoresis): acidic substance which moves toward the positive pole on electrophoresis at neutral pH
- solubility in water (Solubility in water): very soluble in water
- in vivo activity [27]: exhibits in vivo activity against gram-negative and gram-positive organisms
- activity of the solution tested in vivo [28, 30]: 908 Units/ml.
- potency of 890A1 used in the in vivo test [28, 30]: 5.5 units per μg
- antibiotic potency ([28]; 890A1 value defined as standard): 250 units per HAEA300 unit

SMILES: O=C(Cc1cccs1)N[C@@H]1C(=O)N2C(C(=O)[O-])=C(C[n+]3ccccc3)CS[C@H]12 [cephaloridine]
- slope of the line [29]: 4.0
- zone of inhibition at 3.12 µg/mL ([29]; Comamonas terrigena, ATCC8461, 3.12 mcg/ml, 5 ml. plate, read-out: Zone Diameter): 16.8 mm
- zone of inhibition at 6.25 µg/mL ([29]; Comamonas terrigena, ATCC8461, 6.25 mcg/ml, 5 ml. plate, read-out: Zone Diameter): 22.3 mm
- zone of inhibition at 12.5 µg/mL ([29]; Comamonas terrigena, ATCC8461, 12.5 mcg/ml, 5 ml. plate, read-out: Zone Diameter): 25 mm
- zone of inhibition at 25 µg/mL ([29]; Comamonas terrigena, ATCC8461, 25 mcg/ml, 5 ml. plate, read-out: Zone Diameter): 29.6 mm
